The source of these data is patent publication US6833456B2, “Indolyl-urea derivatives of thienopyridines useful as antiangiogenic agents, and methods for their use” (Agouron Pharmaceuticals, Inc., priority 2002, dated 2004).

Data set [1] deals with T1, unphosphorylated VEGF-R2Δ50 (FLVK) (Homo sapiens, UniProt P35968, DEL940-989/E990V).
T1 construct: VEGF-R2Δ50 contains residues 806-939 and 990-1171; made in house; host or cells: baculovirus/insect cell system
The data set is described as follows: VEGF-R2 coupled spectrophotometric assay, unphosphorylated construct (FLVK). Conditions: for inhibition at 0.05 µM: percent inhibition at 50 nM. Type of data set: biochemical. In outline:
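Continuous coupled assay (PEP, PK, LDH; NADH loss at 340 nm) in 200 mM HEPES pH 7.5 with 3 mM ATP, 20 mM poly(E4Y1), 60 mM MgCl2 plus 2 mM MnCl2, started with 5-40 nM non-autophosphorylated VEGF-R2Δ50. Ki values from activity across compound concentrations, Morrison fit.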

Data set [2] deals with human umbilical vein endothelial cells (HUVEC). Description: HUVEC+VEGF proliferation assay. The format is cell-based. To be noted: VEGF 6 ng/mL, MTT. A digest of the protocol: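 Proliferation driven by VEGF (final 6 ng/mL) was quantified by MTT reduction (A595) 72 h after stimulation. Passage 3-4 HUVEC were starved for 24 h in 1% FBS F12K and given test agent 1 h before VEGF, with DMSO at 0.1% final.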

Data set [3] is described as follows: Human liver microsome (HLM) assay. The format is in vitro ADME. To be noted: human liver microsomes. The protocol:
Compound metabolism in human liver microsomes was measured by LC-MS analytical assay procedures as follows. First, human liver microsomes (HLM) were thawed and diluted to 5 mg/mL with cold 100 mM potassium phosphate (KPO4) buffer. Appropriate amounts of KPO4 buffer, NADPH-regenerating solution (containing B-NADP, glucose-6-phosphate, glucose-6-phosphate dehydrogenase, and MgCl2), and HLM were preincubated in 13×100 mm glass tubes at 37° C. for 10 min. (3 tubes per test compound—triplicate). Test compound (5 μM final) was added to each tube to initiate reaction and was mixed by gentle vortexing, followed by incubation at 37° C. […] Samples were centrifuged at 4000 rpm for 20 min. to precipitate proteins and salt (Beckman Allegra 6KR, S/N ALK98DO6, #634). Supernatant was transferred to new 12×75 mm glass tubes and evaporated by Speed-Vac centrifugal vacuum evaporator. Samples were reconstituted in 200 μL 0.1% formic acid/acetonitrile (90/10) and vortexed vigorously to dissolve. The samples were then transferred to separate polypropylene microcentrifuge tubes and centrifuged at 14000×g for 10 min. (Fisher Micro 14, S/N M0017580). […]
The combined compound samples were injected into the LC-MS system, composed of a Hewlett-Packard HP1100 diode array HPLC and a Micromass Quattro II triple quadruple mass spectrometer operating in positive electrospray SIR mode (programmed to scan specifically for the molecular ion of each test compound). Each test compound peak was integrated at each timepoint. […]
On the technique in general: Liver microsomes are a subcellular fraction often used to study metabolism.

T1 sequence (P35968 with tags, fused parts or gaps DEL940-989/E990V limits assumed): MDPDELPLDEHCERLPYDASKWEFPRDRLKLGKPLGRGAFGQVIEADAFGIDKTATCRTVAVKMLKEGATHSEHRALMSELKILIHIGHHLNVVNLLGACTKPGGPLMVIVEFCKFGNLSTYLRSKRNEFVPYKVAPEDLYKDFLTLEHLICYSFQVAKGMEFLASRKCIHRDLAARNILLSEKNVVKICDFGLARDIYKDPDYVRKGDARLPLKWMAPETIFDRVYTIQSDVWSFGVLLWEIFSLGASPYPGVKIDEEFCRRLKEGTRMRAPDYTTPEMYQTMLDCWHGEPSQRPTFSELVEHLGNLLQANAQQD

In data set [1], `COC[C@H]1CCCN1C(=O)c1cc2nccc(Nc3ccc4c(c3)cc(C)n4C(=O)NC3CC3)c2s1` [Example 1d, 5-[2-(2R-Methoxymethyl-pyrrolidine-1-carbonyl)-thieno[3,2-b]pyridin-7-ylamino]-2-methyl-indole-1-carboxylic acid cyclopropylamide] displayed a Ki of 1.1 nM and an inhibition at 0.05 µM of 97%. For the same molecule, in data set [2] (72 hours), the half-inhibitory concentration (IC50) came to 0.56 nM. In addition, the “% remain (HLM-NADPH, 0.5 h)” value in data set [3] is listed as 85%.
With `CNC(=O)n1c(C)cc2cc(Nc3ccnc4cc(C(=O)N5CCC[C@H]5COC)sc34)ccc21` [Example 1t, 5-(2-[(S)-2-(methoxymethyl)pyrrolidine-1-carbonyl]thieno[3,2-b]pyridin-7-ylamino)-2-methylindole-1-carboxylic acid methylamide], in data set [1], the Ki was 1.13 nM and at 0.05 µM the inhibition was 87%. Moreover, in data set [3], the “% remain (HLM-NADPH, 0.5 h)” value amounted to 76.3%.
In data set [1], `CNC(=O)n1c(C)cc2cc(Nc3ccnc4cc(-c5nccn5C)sc34)ccc21` [Example 2a, 5-(2-[1-methyl-1H-imidazol-2-yl]thieno[3,2-b]pyridin-7-ylamino)-2-methylindole-1-carboxylic acid methylamide] came in with a Ki of 2.1 nM and an inhibition at 0.05 µM of 84%. For the same molecule, in data set [3], the “% remain (HLM-NADPH, 0.5 h)” value is listed as 91.1% and the “% remain (HLM-UDPGA, 0.5 h)” value was found to be 101.8%.
In data set [1], `CNC(=O)n1c(C)cc2cc(Nc3ccnc4cc(C(=O)N5CCC[C@H]5CO)sc34)ccc21` [Example 2b, 5-(2-[(S)-2-(hydroxymethyl)pyrrolidine-1-carbonyl]thieno[3,2-b]pyridin-7-ylamino)-2-methylindole-1-carboxylic acid methylamide] had a Ki of 1.03 nM and an inhibition at 0.05 µM of 85%. In data set [3], the “% remain (HLM-NADPH, 0.5 h)” value stood at 92.1% and the “% remain (HLM-UDPGA, 0.5 h)” value worked out at 104.8%.
As to `COC[C@@H]1CCCN1C(=O)c1cc2nccc(Nc3ccc4c(c3)cc(C)n4C(=O)NC3CC3)c2s1` [Example 2c, 5-(2-[(S)-2-(methoxymethyl)pyrrolidine-1-carbonyl]thieno[3,2-b]pyridin-7-ylamino)-2-methylindole-1-carboxylic acid cyclopropylamide], in data set [1], the affinity corresponds to a Ki of 0.56 nM and at 0.05 µM the inhibition was 97%. The IC50 in data set [2] (Homo sapiens, HUVEC, 72 h) was 0.44 nM. The “% remain (HLM-NADPH, 0.5 h)” value in data set [3] was determined as 76.2%.
As to `COC[C@@H]1CCCN1C(=O)c1cc2nccc(Oc3ccc4c(c3)cc(C)n4C(=O)NC3CC3)c2s1` [Example 4b, 5-(2-[(S)-2-(methoxymethyl)pyrrolidine-1-carbonyl]thieno[3,2-b]pyridin-7-yloxy)-2-methylindole-1-carboxylic acid cyclopropylamide], in data set [1], affinity was put at a Ki of 0.13 nM and at 0.05 µM the inhibition was 97%. Further, in data set [3], the “% remain (HLM-NADPH, 0.5 h)” value stood at 70.9%.
On the same counts, the results for `C#CCNC(=O)n1c(C)cc2cc(Oc3ccnc4cc(C(=O)N5CCC[C@H]5COC)sc34)ccc21` [Example 4c, 5-(2-[(S)-2-(methoxymethyl)pyrrolidine-1-carbonyl]thieno[3,2-b]pyridin-7-yloxy)-2-methylindole-1-carboxylic acid prop-2-ynylamide] are 0.1 nM, 96% and 76.1%.

As a reminder, the Ki is a dissociation constant, usually derived from enzyme kinetics or from competition with a known ligand. A lower Ki goes with tighter binding. A word on the inhibition: it is how much of the control response was suppressed. A lower inhibition goes with a weak effect. As usually defined, the IC50 is the concentration needed to halve the response being measured.
